# Tests used:
# [1] = target: SMARCA4 (Homo sapiens, UniProt P51532); experiment: HiBiT assay for protein degradation, Hela SMARCA4-HiBiT cells (A series); type: cell-based; design: fuse HiBiT to the carboxy terminus of SMARCA2 (Promega CS302365) or SMARCA4 (Promega CS3023225); host or cells: HeLa (CRISPR/Cas9 HiBiT knock-in); details: Hela SMARCA4-HiBiT cells, 24 hours treatment; for DC50: read-out: SMARC A4 Hela HiBit DC50; for Dmax: read-out: SMARC A4 Hela HiBit Dmax
# Procedure, shortened: (§1)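 HeLa cells engineered by CRISPR/Cas9 to carry a HiBiT tag fused to the C-terminus of SMARCA4 (Promega CS3023225) were grown in DMEM supplemented with FBS and penicillin-streptomycin. After compound exposure, remaining SMARCA4 protein was quantified using the Nano-Glo® HiBiT Lytic Detection Assay (Promega N3050), and curves were fitted in GraphPad Prism.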
# [2] = target: SMARCA2 (Homo sapiens, UniProt P51531); experiment: HiBiT assay for protein degradation, Hela SMARCA2-HiBiT cells (A series); type: cell-based; design: Hela cells were genetically modified via CRISPR/Cas9 to fuse HiBiT to the carboxy terminus of SMARCA2; host or cells: HeLa (CRISPR/Cas9 HiBiT knock-in); details: Hela SMARCA2-HiBiT cells, 24 hours treatment; for DC50: read-out: SMARC A2 Hela HiBit DC50; for Dmax: read-out: SMARC A2 Hela HiBit Dmax (%);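 as to SMARC A2 Hela HiBit Dmax (%): 24 h compound treatment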
# Sequence of SMARCA2 (P51531 whole entry): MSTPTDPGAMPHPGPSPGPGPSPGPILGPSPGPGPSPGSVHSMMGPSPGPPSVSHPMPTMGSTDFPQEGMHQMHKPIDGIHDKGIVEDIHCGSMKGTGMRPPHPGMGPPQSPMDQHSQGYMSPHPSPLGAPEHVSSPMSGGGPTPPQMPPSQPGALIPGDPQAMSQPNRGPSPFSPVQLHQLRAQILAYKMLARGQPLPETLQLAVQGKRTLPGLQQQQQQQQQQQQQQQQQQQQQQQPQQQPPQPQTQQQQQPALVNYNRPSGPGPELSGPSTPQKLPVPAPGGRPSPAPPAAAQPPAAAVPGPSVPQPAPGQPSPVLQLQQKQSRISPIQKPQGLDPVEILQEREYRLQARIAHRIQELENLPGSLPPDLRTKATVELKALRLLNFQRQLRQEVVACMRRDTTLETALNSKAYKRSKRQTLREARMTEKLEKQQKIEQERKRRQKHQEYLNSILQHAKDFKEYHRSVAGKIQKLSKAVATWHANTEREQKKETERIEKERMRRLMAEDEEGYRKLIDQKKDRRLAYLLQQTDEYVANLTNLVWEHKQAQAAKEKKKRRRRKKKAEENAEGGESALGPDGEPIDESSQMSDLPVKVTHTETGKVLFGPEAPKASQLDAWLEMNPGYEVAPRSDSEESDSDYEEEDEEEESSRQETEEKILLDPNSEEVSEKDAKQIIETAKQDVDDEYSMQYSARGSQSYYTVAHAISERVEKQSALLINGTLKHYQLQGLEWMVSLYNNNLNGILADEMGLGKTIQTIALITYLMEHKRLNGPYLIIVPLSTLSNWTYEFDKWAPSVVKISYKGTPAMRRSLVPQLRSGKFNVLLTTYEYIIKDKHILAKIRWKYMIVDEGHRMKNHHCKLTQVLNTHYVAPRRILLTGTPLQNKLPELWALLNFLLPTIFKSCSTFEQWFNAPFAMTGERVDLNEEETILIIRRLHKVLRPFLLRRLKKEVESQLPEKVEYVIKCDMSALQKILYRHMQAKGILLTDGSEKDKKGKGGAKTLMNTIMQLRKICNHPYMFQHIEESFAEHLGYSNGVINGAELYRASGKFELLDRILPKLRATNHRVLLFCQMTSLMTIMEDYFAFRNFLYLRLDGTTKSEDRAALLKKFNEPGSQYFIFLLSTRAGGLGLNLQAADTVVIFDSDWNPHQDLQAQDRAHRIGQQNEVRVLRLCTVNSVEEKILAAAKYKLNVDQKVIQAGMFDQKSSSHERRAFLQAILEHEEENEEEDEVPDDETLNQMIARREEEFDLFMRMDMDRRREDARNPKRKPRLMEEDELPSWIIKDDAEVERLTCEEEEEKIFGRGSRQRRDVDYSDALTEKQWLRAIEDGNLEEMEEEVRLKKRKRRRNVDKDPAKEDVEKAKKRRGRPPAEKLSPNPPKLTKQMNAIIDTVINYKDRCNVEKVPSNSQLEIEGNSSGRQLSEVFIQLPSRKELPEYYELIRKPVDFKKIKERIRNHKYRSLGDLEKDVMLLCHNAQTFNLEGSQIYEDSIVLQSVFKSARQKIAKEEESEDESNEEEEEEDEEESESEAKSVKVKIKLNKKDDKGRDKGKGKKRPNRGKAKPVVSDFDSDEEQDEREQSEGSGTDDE
# Procedure, shortened: as §1, with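 “SMARCA2” for “SMARCA4”, “CS302365)” for “CS3023225)”, “treatment,” for “compound exposure,”, “with” for “using”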
# [3] = system: SMARCA4-deficient cancer cell lines; details: pharmacological studies; cited from earlier work
# Sequence of SMARCA4 (P51532 whole entry, the tested form may be a part): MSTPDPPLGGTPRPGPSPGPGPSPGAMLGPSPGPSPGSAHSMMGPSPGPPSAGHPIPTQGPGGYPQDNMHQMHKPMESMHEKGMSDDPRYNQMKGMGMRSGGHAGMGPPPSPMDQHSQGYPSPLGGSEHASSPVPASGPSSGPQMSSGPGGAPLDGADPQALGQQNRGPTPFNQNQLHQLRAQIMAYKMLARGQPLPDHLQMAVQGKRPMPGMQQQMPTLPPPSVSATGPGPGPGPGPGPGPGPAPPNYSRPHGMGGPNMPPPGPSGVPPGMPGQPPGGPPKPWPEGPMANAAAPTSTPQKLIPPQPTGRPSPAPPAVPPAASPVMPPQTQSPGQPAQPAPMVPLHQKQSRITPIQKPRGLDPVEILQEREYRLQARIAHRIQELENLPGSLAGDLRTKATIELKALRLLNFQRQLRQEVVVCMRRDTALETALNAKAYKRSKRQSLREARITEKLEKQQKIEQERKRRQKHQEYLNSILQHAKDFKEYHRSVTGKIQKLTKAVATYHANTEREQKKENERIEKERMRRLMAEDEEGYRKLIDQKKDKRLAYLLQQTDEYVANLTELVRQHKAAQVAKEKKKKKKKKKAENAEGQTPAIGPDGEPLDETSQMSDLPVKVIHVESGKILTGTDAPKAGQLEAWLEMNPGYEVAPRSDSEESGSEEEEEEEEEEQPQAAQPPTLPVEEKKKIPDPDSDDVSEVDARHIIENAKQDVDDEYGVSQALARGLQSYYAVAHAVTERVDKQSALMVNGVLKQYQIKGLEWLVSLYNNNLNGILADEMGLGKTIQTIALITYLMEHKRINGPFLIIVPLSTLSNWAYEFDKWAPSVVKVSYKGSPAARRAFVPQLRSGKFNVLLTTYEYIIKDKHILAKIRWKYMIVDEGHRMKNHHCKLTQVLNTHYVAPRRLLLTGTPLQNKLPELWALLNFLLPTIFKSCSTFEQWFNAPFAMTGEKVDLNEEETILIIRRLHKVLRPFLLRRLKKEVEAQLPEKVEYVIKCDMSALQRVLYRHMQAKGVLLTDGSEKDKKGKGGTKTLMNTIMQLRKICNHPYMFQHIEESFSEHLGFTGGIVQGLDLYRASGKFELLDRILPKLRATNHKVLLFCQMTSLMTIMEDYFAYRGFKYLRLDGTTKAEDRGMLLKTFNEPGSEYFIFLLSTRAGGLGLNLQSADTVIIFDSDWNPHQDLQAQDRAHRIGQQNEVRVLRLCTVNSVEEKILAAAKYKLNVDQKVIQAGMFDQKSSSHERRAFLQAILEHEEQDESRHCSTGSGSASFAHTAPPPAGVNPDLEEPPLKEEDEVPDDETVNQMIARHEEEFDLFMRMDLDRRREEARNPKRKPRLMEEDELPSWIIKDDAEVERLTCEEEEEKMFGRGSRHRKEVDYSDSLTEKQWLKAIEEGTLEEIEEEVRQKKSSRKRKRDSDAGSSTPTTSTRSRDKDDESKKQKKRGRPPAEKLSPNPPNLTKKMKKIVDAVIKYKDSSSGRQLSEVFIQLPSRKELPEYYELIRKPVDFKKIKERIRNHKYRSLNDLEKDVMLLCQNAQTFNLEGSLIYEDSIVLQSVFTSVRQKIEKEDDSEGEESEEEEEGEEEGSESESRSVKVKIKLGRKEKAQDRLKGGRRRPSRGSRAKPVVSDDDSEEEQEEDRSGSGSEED
DC50 [1] [nM],Dmax [1] [%],DC50 [2] [nM],Dmax [2] [%],Structure (SMILES),antiproliferative phenotype [3]
> 1000,< 50,< 10,> 90,"CC(C)(C)[C@@H](C(=O)N1C[C@H](O)C[C@H]1C(=O)N[C@@H](CN1CCOCC1)c1ccc(-c2ccncc2)cc1)n1cc([C@H]2CC[C@H](CN3CCC(c4ccc5c(c4)-n4c(nc(=O)c6c(Cl)cccc64)C54CCCCC4)CC3)CC2)nn1 [Compound A172, (2S,4R)-1-((S)-2-(4-((1r,4S)-4-((4-(4′-chloro-5′-oxo-5′H-spiro[cyclohexane-1,7′-indolo[1,2-a]quinazolin]-10′-yl)piperidin-1-yl)methyl)cyclohexyl)-1H-1,2,3-triazol-1-yl)-3,3-dimethylbutanoyl)-4-hydroxy-N—((R)-2-morpholino-1-(4-(pyridin-4-yl)phenyl)ethyl)pyrrolidine-2-carboxamide]",
> 1000,< 50,< 10,> 90,"CC(C)(C)[C@@H](C(=O)N1C[C@H](O)C[C@H]1C(=O)N[C@@H](CN1CCOCC1)c1ccc(-c2ccccn2)cc1)n1cc([C@H]2CC[C@H](CN3CCC(c4ccc5c(c4)-n4c(nc(=O)c6c(Cl)cccc64)C54CCCCC4)CC3)CC2)nn1 [Compound A173, (2S,4R)-1-((S)-2-(4-((1r,4S)-4-((4-(4′-chloro-5′-oxo-5′H-spiro[cyclohexane-1,7′-indolo[1,2-a]quinazolin]-10′-yl)piperidin-1-yl)methyl)cyclohexyl)-1H-1,2,3-triazol-1-yl)-3,3-dimethylbutanoyl)-4-hydroxy-N—((R)-2-morpholino-1-(4-(pyridin-2-yl)phenyl)ethyl)pyrrolidine-2-carboxamide]",
> 1000,< 50,< 10,> 90,"Cc1ncccc1-c1ccc([C@H](CN2CCOCC2)NC(=O)[C@@H]2C[C@@H](O)CN2C(=O)[C@@H](n2cc([C@H]3CC[C@H](CN4CCC(c5ccc6c(c5)-n5c(nc(=O)c7c(Cl)cccc75)C65CCCCC5)CC4)CC3)nn2)C(C)(C)C)cc1 [Compound A174, (2S,4R)-1-((S)-2-(4-((1r,4S)-4-((4-(4′-chloro-5′-oxo-5′H-spiro[cyclohexane-1,7′-indolo[1,2-a]quinazolin]-10′-yl)piperidin-1-yl)methyl)cyclohexyl)-1H-1,2,3-triazol-1-yl)-3,3-dimethylbutanoyl)-4-hydroxy-N—((R)-1-(4-(2-methylpyridin-3-yl)phenyl)-2-morpholinoethyl)pyrrolidine-2-carboxamide]",
> 1000,< 50,< 10,> 90,Cc1ccncc1-c1ccc([C@H](CN2CCOCC2)NC(=O)[C@@H]2C[C@@H](O)CN2C(=O)[C@@H](n2cc([C@H]3CC[C@H](CN4CCC(c5ccc6c(c5)-n5c(nc(=O)c7c(Cl)cccc75)C65CCCCC5)CC4)CC3)nn2)C(C)(C)C)cc1 [Compound A175],
,,,,O=C(/C=C/N1C[C@H]2C[C@@H]1CN2c1ccccn1)c1ccccc1O [PFI-3],fail to display an antiproliferative phenotype

# — patent US20260092071A1, “COMPOUNDS AND COMPOSITIONS AS SMARCA2/4 DEGRADERS AND USES THEREOF” (REGENTS OF THE UNIVERSITY OF MICHIGAN, priority 2022, published 2026)
